From paper PMC8911181, “A Novel CDK4/6 and PARP Dual Inhibitor ZC-22 Effectively Suppresses Tumor Growth and Improves the Response to Cisplatin Treatment in Breast and Ovarian Cancer” (International Journal of Molecular Sciences, 2022)

Legend:
Assay in all cases: Cell viability assay (CCK-8), IC50
Format in all cases: cell-based
[1] = tested on: SUM-159 cells; details: Homo sapiens, SUM159, 6 days, medium replenished every 2 days
Protocol: (§1) Human breast cancer cell lines MDA-MB-231 and SUM-159, and human ovarian cancer cell lines OVCAR5 and SKOV3 were obtained from the American Type Culture Collection (ATCC). MDA-MB-231 cells were cultured in L-15 medium with 10% fetal bovine serum (FBS), incubated at 37 °C in a humidified incubator without additional CO2. SUM-159 cells were maintained in Dulbecco’s modified Eagle’s medium (DMEM) containing 10% FBS, and OVCAR5 and SKOV3 cells were incubated in Roswell Park Memorial Institute (RPMI)-1640 medium with 10% FBS and cultured at 37 °C in a humidified incubator containing 5% CO2.
(§2) Cell viability assay was performed as described before. Briefly, 2500/well of breast or ovarian cancer cells were seeded into a 96-well plate; grown overnight; treated with indicated concentration of Olaparib, LY2835219, ZC22, LP-1, GC-24, or cisplatin alone or together for an indicated amount of time; and then incubated with Cell Counting kit-8 (CCK-8) substrate (Dojindo, Kumamoto, Kyushu Island, Japan) for 1–2 h at 37 °C. Cell viability was calculated by the absorbance at 450 nm measured by the GloMax Explorer (Promega, Madison, WI, USA). Cells without treatment were set as 100%, and medium control (no cells) was set as 0%.
(§3) Figure 1 Synthesis strategy and activity assay of the novel compounds targeting both PARP and CDK4/6. (A) Synthesis strategy of the three novel compounds GC-24, LP-1, and ZC-22. (B) IC50 of GC-24, LP-1, and ZC-22 in breast and ovarian cancer cells. Cells were treated with increasing concentrations of GC-24, LP 1, or ZC-22 for 6 days with replenishment of medium every 2 days. Cell proliferation was analyzed by CCK-8 assays. (C) The reagents and conditions used for the chemical synthesis of ZC-22 in this study: (a) Pd(AcO)2, BINAP, CS2CO3, 1,4-Dioxane, 100 °C, 12 h; (b) CF3COOH, DCM, Room temperature, 6 h; (c) HOBt, EDCI, DIPEA, DMF, Room temperature, 12 h. TEXT PRINTED IN THE PICTURE: (B) LP-1: MDA-MB-231 IC50 (μM): >50; SUM-159 IC50 (μM): 7.780; OVCAR5 IC50 (μM): 10.11; SKOV3 IC50 (μM): 10.16 | (B) GC-24: MDA-MB-231 IC50 (μM): 33.77; SUM-159 IC50 (μM): 17.77; OVCAR5 IC50 (μM): 26.08; SKOV3 IC50 (μM): >50 | (B) ZC-22: MDA-MB-231 IC50 (μM): 3.608; SUM-159 IC50 (μM): 0.435; OVCAR5 IC50 (μM): 0.758; SKOV3 IC50 (μM): 0.542
(§4) Figure 2 ZC-22 suppresses proliferation of breast and ovarian cancer cells. (A) IC50 of ZC-22, Olaparib, and LY2835219 (Abemaciclib) in breast and ovarian cancer cells. Cells were treated with increasing concentrations of ZC-22, Olaparib, or LY2835219 for 6 days with replenishment of medium every 2 days. Cell proliferation was analyzed by CCK-8 assays. (B) Cell proliferation assay of breast and ovarian cancer cells with indicated treatment. MDA-MB-231 cells were treated with 2 μM Olaparib (OLA) or LY2835219 (LY-2) alone or together (OLA + LY-2) or with ZC-22 alone for 48 or 72 h. SUM-159, OVCAR5, and SKOV3 cells were treated with 0.5 μM OLA or LY-2 alone or together or with ZC-22 alone. Cell proliferation assay was analyzed by CCK-8 assays. Values are means ± SD, n = 3. ns, not significant, * p < 0.05, ** p < 0.01 and *** p < 0.001 for comparisons with the DMSO-treated group using an unpaired t-test. TEXT PRINTED IN THE PICTURE: (A) ZC-22: MDA-MB-231 IC50 (μM): 3.608; SUM-159 IC50 (μM): 0.435; OVCAR5 IC50 (μM): 0.758; SKOV3 IC50 (μM): 0.542 | (A) LY2835219: MDA-MB-231 IC50 (μM): 11.28; SUM-159 IC50 (μM): 0.664; OVCAR5 IC50 (μM): 9.791; SKOV3 IC50 (μM): 1.158 | (A) Olaparib: MDA-MB-231 IC50 (μM): 32.13; SUM-159 IC50 (μM): 19.29; OVCAR5 IC50 (μM): 30.51; SKOV3 IC50 (μM): >50

[2] = tested on: SKOV3 cells; details: Homo sapiens, SK-OV-3, 6 days, medium replenished every 2 days
Protocol: as §1, §2, §3, §4

[3] = tested on: MDA-MB-231 cells; details: Homo sapiens, 6 days, medium replenished every 2 days
Protocol: as §1, §2, §3, §4

[4] = tested on: OVCAR5 cells; details: Homo sapiens, OVCAR-5, 6 days, medium replenished every 2 days
Protocol: as §1, §2, §3, §4

Structure (SMILES) | IC50 [1] | IC50 [2] | IC50 [3] | IC50 [4]
CCN1CCN(Cc2ccc(Nc3ncc(F)c(-c4cc(F)c5nc(C)n(C(C)C)c5c4)n3)nc2)CC1 [LY2835219, Abemaciclib, reference compound] | 664 nM | 1160 nM | 11300 nM | 9790 nM
Cc1nc2c(F)cc(-c3nc(Nc4ccc(N5CCN(C(=O)c6cc(Cc7n[nH]c(=O)c8ccccc78)ccc6F)CC5)cn4)ncc3F)cc2n1C(C)C [ZC-22, 4-(4-fluoro-3-(4-(6-((5-fluoro-4-(4-fluoro-1-isopropyl-2-methyl-1H-benzo[d]imidazole-6-yl)pyrimidin-2-yl)amino)pyridin-3-yl)piperazine-1-carbonyl)benzyl)phthalazin-1(2H)-one] | 435 nM | 542 nM | 3610 nM | 758 nM
